{"source": "patent US10597387B2", "about": "“Methods to treat lymphoplasmacytic lymphoma” (Dana-Farber Cancer Institute, Inc., priority 2013, dated 2020)", "key": {"[1]": {"biological_target": "T1, BTK (Homo sapiens (Human), UniProt Q06187)", "T1 sequence (Q06187 whole entry)": "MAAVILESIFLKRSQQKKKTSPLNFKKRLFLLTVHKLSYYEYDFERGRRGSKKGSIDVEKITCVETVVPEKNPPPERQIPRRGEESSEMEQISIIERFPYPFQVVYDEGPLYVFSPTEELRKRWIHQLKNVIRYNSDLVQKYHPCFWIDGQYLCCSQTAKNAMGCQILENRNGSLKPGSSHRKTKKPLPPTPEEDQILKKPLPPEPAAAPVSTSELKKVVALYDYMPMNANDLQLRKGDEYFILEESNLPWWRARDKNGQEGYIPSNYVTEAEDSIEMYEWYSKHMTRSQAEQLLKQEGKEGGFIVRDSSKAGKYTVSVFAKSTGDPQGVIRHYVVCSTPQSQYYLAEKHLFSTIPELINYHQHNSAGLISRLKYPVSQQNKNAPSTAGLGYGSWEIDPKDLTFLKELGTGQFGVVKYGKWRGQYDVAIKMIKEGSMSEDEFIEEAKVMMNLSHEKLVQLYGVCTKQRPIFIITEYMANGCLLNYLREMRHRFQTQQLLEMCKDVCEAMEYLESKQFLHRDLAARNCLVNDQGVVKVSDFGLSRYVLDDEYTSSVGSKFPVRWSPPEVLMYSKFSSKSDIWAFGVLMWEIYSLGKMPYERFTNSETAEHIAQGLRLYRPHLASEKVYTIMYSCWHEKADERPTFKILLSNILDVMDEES", "assay": "Invitrogen Select Screening kinase assay", "type": "biochemical", "details": "in vitro", "description": "The in vitro activity of the compounds described herein in inhibiting TAK1, HCK, and other kinases were obtained using an Invitrogen Select Screening assay as known in the art. The IC50 values determined from this assay are shown below."}, "[2]": {"biological_target": "T1, BTK", "assay": "KiNativ kinase profiling", "type": "binding", "details": "read-out: inhibition of kinase labeling"}, "[3]": {"biological_target": "CaMK1d (Homo sapiens (Human), UniProt Q8IU85)", "assay": "KiNativ kinase profiling", "type": "binding", "details": "Lys1, A375 cells, read-out: inhibition of kinase labeling"}, "[4]": {"biological_target": "CaMK4 (Homo sapiens (Human), UniProt Q16566)", "sequence (Q16566 whole entry)": "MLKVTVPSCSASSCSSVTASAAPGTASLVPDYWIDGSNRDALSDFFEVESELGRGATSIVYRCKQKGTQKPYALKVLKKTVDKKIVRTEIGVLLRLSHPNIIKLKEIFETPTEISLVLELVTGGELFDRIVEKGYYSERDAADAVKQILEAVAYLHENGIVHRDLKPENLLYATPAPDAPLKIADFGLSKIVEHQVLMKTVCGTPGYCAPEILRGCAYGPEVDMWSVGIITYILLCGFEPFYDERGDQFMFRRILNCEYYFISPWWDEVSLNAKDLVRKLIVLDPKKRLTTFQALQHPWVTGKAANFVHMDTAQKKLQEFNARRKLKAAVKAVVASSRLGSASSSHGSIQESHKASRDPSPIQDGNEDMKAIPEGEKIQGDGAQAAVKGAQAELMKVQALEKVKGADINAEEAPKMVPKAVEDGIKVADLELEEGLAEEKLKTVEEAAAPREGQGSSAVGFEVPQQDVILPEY", "assay": "KiNativ kinase profiling", "type": "binding", "details": "Lys2, A375 cells, read-out: inhibition of kinase labeling"}, "[5]": {"test_system": "CDK11, CDK8", "assay": "KiNativ kinase profiling", "type": "binding, Homo sapiens", "details": "Lys2, 1 μM, A375 cells"}, "[6]": {"biological_target": "CDK2 (Homo sapiens (Human), UniProt P24941)", "assay": "KiNativ kinase profiling", "type": "binding", "details": "Lys2, A375 cells, read-out: inhibition of kinase labeling"}, "[7]": {"biological_target": "CK1g2 (Homo sapiens (Human), UniProt P78368)", "assay": "KiNativ kinase profiling", "type": "binding", "details": "Lys2, A375 cells, read-out: inhibition of kinase labeling"}, "[8]": {"biological_target": "CSK (Homo sapiens (Human), UniProt P41240)", "assay": "KiNativ kinase profiling", "type": "binding", "details": "Activation Loop, A375 cells, read-out: inhibition of kinase labeling"}, "[9]": {"biological_target": "FGR (Homo sapiens (Human), UniProt P09769)", "sequence (P09769 whole entry)": "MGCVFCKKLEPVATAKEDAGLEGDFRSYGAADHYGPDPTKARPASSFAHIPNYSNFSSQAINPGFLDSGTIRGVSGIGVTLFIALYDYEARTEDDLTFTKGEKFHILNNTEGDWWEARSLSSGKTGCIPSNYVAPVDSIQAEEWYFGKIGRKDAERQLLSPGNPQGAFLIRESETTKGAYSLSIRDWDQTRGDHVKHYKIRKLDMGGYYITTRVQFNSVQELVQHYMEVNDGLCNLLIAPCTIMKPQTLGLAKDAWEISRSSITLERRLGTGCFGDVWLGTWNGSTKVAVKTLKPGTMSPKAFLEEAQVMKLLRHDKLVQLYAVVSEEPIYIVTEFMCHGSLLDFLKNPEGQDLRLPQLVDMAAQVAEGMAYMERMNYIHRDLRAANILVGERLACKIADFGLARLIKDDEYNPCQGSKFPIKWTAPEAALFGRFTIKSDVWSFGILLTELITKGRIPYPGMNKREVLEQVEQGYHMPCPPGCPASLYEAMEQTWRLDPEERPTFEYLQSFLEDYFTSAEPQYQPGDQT", "assay": "KiNativ kinase profiling", "type": "binding", "details": "Activation Loop, A375 cells, read-out: inhibition of kinase labeling"}, "[10]": {"biological_target": "GSK3A (Homo sapiens (Human), UniProt P49840)", "assay": "KiNativ kinase profiling", "type": "binding", "details": "Lys2, A375 cells, read-out: inhibition of kinase labeling"}, "[11]": {"biological_target": "GSK3B (Homo sapiens (Human), UniProt P49841)", "assay": "KiNativ kinase profiling", "type": "binding", "details": "Lys2, A375 cells, read-out: inhibition of kinase labeling"}, "[12]": {"biological_target": "ILK (Homo sapiens (Human), UniProt Q13418)", "sequence (Q13418 whole entry, the tested form may be a part)": "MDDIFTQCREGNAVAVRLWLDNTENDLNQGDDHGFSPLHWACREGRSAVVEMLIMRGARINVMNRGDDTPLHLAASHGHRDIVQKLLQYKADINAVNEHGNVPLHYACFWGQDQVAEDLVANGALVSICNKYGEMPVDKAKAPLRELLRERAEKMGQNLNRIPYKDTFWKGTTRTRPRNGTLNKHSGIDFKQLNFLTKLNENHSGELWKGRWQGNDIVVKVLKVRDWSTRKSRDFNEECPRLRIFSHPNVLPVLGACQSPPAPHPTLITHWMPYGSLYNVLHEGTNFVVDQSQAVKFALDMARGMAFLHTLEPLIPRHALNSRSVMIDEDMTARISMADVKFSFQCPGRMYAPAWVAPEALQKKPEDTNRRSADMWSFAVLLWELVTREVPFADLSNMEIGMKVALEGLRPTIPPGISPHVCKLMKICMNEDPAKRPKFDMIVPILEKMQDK", "assay": "KiNativ kinase profiling", "type": "binding", "details": "Protein Kinase Domain, A375 cells, read-out: inhibition of kinase labeling"}, "[13]": {"biological_target": "IRAK4 (Homo sapiens (Human), UniProt Q9NWZ3)", "assay": "KiNativ kinase profiling", "type": "binding", "details": "Lys2, A375 cells, read-out: inhibition of kinase labeling"}, "[14]": {"biological_target": "JAK1 (Homo sapiens (Human), UniProt P23458)", "assay": "KiNativ kinase profiling", "type": "binding", "details": "Protein Kinase Domain, A375 cells, read-out: inhibition of kinase labeling"}, "[15]": {"biological_target": "KHS1 (Homo sapiens (Human), UniProt Q9Y4K4)", "assay": "KiNativ kinase profiling", "type": "binding", "details": "Lys1, A375 cells, read-out: inhibition of kinase labeling"}, "[16]": {"biological_target": "LOK (Homo sapiens (Human), UniProt O94804)", "assay": "KiNativ kinase profiling", "type": "binding", "details": "Lys2, A375 cells, read-out: inhibition of kinase labeling"}, "[17]": {"test_system": "MAP2K1, MAP2K2", "assay": "KiNativ kinase profiling", "type": "binding, Homo sapiens", "details": "Lys2, 1 μM, A375 cells"}, "[18]": {"biological_target": "MAP2K4 (Homo sapiens (Human), UniProt P45985)", "assay": "KiNativ kinase profiling", "type": "binding", "details": "Lys2, A375 cells, read-out: inhibition of kinase labeling"}, "[19]": {"biological_target": "MAP2K5 (Homo sapiens (Human), UniProt Q13163)", "sequence (Q13163 whole entry)": "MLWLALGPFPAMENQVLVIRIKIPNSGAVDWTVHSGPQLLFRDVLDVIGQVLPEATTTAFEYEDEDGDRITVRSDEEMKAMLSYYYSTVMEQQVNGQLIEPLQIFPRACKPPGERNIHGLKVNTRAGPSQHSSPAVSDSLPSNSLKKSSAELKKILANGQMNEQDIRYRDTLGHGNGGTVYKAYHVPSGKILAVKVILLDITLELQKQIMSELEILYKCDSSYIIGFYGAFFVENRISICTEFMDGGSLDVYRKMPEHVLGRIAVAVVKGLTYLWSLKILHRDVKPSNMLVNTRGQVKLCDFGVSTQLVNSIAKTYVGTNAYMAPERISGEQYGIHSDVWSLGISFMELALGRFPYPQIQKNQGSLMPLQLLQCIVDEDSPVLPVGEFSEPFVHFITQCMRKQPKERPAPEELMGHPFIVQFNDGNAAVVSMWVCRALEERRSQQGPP", "assay": "KiNativ kinase profiling", "type": "binding", "details": "Lys2, A375 cells, read-out: inhibition of kinase labeling"}, "[20]": {"biological_target": "MAP2K6 (Homo sapiens (Human), UniProt P52564)", "assay": "KiNativ kinase profiling", "type": "binding", "details": "Lys2, A375 cells, read-out: inhibition of kinase labeling"}, "[21]": {"biological_target": "MAP2K7 (Homo sapiens (Human), UniProt O14733)", "assay": "KiNativ kinase profiling", "type": "binding", "details": "Lys2, A375 cells, read-out: inhibition of kinase labeling"}, "[22]": {"biological_target": "MST2 (Homo sapiens (Human), UniProt Q13188)", "assay": "KiNativ kinase profiling", "type": "binding", "details": "Lys1, A375 cells, read-out: inhibition of kinase labeling"}, "[23]": {"biological_target": "MST3 (Homo sapiens (Human), UniProt Q9Y6E0)", "assay": "KiNativ kinase profiling", "type": "binding", "details": "Lys2, A375 cells, read-out: inhibition of kinase labeling"}, "[24]": {"biological_target": "NEK3 (Homo sapiens (Human), UniProt P51956)", "assay": "KiNativ kinase profiling", "type": "binding", "details": "Activation Loop, A375 cells, read-out: inhibition of kinase labeling"}, "[25]": {"test_system": "NEK6, NEK7", "assay": "KiNativ kinase profiling", "type": "binding, Homo sapiens", "details": "Lys2, 1 μM, A375 cells"}, "[26]": {"biological_target": "p38a (Homo sapiens (Human), UniProt Q16539)", "assay": "KiNativ kinase profiling", "type": "binding", "details": "Protein Kinase Domain, A375 cells, read-out: inhibition of kinase labeling"}, "[27]": {"test_system": "p38d, p38g", "assay": "KiNativ kinase profiling", "type": "binding, Homo sapiens", "details": "Lys2, 1 μM, A375 cells"}, "[28]": {"biological_target": "PI4KB (Homo sapiens (Human), UniProt Q9UBF8)", "assay": "KiNativ kinase profiling", "type": "binding", "details": "ATP, A375 cells, read-out: inhibition of kinase labeling"}, "[29]": {"biological_target": "PIK3C3 (Homo sapiens (Human), UniProt Q8NEB9)", "assay": "KiNativ kinase profiling", "type": "binding", "details": "ATP, A375 cells, read-out: inhibition of kinase labeling"}, "[30]": {"biological_target": "PIK3CB (Homo sapiens (Human), UniProt P42338)", "sequence (P42338 whole entry)": "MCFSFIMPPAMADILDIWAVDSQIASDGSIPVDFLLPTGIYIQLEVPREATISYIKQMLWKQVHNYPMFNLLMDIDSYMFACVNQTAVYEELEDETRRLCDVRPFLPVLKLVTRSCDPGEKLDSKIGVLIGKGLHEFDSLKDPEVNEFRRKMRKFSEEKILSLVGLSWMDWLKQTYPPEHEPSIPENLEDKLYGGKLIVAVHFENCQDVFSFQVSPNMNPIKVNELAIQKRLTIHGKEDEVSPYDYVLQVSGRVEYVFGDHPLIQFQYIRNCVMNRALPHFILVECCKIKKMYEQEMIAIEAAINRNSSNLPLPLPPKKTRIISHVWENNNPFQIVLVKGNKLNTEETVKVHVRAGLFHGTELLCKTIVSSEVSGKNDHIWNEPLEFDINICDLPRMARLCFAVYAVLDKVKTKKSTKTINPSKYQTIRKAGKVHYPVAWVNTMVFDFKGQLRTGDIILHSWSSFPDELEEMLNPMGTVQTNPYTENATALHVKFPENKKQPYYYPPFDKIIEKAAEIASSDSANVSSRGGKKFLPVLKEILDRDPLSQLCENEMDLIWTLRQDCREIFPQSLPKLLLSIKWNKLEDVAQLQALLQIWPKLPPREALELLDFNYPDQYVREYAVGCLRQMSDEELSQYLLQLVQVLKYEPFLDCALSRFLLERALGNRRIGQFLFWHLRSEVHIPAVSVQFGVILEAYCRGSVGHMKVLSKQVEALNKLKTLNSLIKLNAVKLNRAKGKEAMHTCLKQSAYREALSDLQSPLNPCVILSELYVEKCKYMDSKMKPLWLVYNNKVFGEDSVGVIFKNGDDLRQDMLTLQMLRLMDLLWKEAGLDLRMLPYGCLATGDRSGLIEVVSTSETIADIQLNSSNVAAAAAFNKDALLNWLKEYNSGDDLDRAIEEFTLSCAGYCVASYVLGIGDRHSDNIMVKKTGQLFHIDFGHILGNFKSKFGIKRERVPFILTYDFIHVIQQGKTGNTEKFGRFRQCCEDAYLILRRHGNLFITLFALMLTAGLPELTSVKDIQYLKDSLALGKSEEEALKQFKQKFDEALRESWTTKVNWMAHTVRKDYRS", "sequence (P27986 whole entry partner)": "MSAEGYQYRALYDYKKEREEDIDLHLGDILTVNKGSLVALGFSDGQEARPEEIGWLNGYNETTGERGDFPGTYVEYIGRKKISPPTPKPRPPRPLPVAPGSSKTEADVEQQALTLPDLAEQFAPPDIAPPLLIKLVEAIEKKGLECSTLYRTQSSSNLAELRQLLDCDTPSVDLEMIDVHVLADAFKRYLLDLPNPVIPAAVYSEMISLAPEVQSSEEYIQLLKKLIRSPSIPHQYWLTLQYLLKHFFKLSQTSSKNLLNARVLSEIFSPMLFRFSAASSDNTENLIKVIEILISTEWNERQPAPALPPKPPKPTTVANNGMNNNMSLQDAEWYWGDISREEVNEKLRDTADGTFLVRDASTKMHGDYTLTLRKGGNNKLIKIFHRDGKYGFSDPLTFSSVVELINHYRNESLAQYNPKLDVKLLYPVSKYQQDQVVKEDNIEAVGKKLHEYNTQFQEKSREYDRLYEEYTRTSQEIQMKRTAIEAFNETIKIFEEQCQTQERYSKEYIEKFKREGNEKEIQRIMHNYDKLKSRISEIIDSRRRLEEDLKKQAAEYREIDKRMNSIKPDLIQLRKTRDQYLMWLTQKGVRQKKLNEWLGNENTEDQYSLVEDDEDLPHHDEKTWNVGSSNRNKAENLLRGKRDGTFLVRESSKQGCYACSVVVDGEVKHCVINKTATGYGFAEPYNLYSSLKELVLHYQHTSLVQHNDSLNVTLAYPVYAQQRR", "assay": "KiNativ kinase profiling", "type": "binding", "details": "ATP, A375 cells, read-out: inhibition of kinase labeling"}, "[31]": {"biological_target": "PIP4K2C (Homo sapiens (Human), UniProt Q8TBX8)", "assay": "KiNativ kinase profiling", "type": "binding", "details": "ATP, A375 cells, read-out: inhibition of kinase labeling"}, "[32]": {"test_system": "PITSLRE", "assay": "KiNativ kinase profiling", "type": "binding, Homo sapiens", "details": "Lys2, 1 μM, A375 cells"}, "[33]": {"biological_target": "PKCi (Homo sapiens (Human), UniProt P41743)", "assay": "KiNativ kinase profiling", "type": "binding", "details": "Lys2, A375 cells, read-out: inhibition of kinase labeling"}, "[34]": {"biological_target": "PKD2 (Homo sapiens (Human), UniProt Q9BZL6)", "assay": "KiNativ kinase profiling", "type": "binding", "details": "Lys1, A375 cells, read-out: inhibition of kinase labeling"}, "[35]": {"biological_target": "PKN1 (Homo sapiens (Human), UniProt Q16512)", "assay": "KiNativ kinase profiling", "type": "binding", "details": "Lys1, A375 cells, read-out: inhibition of kinase labeling"}, "[36]": {"biological_target": "PLK1 (Homo sapiens (Human), UniProt P53350)", "sequence (P53350 whole entry)": "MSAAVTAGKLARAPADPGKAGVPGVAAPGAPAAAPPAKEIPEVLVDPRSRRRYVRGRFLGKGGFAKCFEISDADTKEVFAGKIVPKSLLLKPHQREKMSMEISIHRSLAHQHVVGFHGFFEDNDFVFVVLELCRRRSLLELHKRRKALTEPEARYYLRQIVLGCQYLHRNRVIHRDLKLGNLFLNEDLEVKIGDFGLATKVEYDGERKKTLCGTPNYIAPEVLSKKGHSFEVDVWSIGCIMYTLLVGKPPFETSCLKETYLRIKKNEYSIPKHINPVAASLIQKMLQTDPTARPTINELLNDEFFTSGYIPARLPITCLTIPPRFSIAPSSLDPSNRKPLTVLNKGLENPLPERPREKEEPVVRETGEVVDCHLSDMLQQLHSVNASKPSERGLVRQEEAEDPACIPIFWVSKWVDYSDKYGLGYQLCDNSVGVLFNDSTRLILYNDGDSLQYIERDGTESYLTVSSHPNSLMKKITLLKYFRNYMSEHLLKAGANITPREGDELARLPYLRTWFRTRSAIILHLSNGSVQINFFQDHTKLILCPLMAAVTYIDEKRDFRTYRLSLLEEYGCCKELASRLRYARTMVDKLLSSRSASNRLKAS", "assay": "KiNativ kinase profiling", "type": "binding", "details": "Lys1, A375 cells, read-out: inhibition of kinase labeling"}, "[37]": {"test_system": "ROCK1, ROCK2", "assay": "KiNativ kinase profiling", "type": "binding, Homo sapiens", "details": "Lys2, 1 μM, A375 cells"}, "[38]": {"biological_target": "RSK1 domain2 (Homo sapiens (Human), UniProt Q15418)", "assay": "KiNativ kinase profiling", "type": "binding", "details": "Lys2, A375 cells, read-out: inhibition of kinase labeling"}, "[39]": {"biological_target": "TEC (Homo sapiens (Human), UniProt P42680)", "assay": "KiNativ kinase profiling", "type": "binding", "details": "Activation Loop, A375 cells, read-out: inhibition of kinase labeling"}, "[40]": {"test_system": "ZC1/HGK, ZC2/TNIK, ZC3/MINK", "assay": "KiNativ kinase profiling", "type": "binding, Homo sapiens", "details": "Lys2, 1 μM, A375 cells"}}, "note": "pIC50: −log10 of the molar value. Where two headings read alike, the source gives them in different places."}
{"smiles": "Cc1ccc(C(=O)Nc2cccc(C(C)(C)C#N)c2)cc1NC(=O)c1cncc(-c2cccs2)c1", "note": "[I-6, N-(5-((3-(2-cyanopropan-2-yl)phenyl)carbamoyl)-2-methylphenyl)-5-(thiophen-2-yl)nicotinamide]", "values": [{"measurement": "pIC50", "setting": "[1]", "value": 5.94}, {"measurement": "inhibition at 1 µM", "setting": "[2]; Activation Loop, A375 cells", "value": -12.5, "unit": "%"}, {"measurement": "inhibition at 1 µM", "setting": "[2]; Lys1, A375 cells", "value": 7.8, "unit": "%"}, {"measurement": "inhibition at 1 µM", "setting": "[3]", "value": -17.8, "unit": "%"}, {"measurement": "inhibition at 1 µM", "setting": "[4]", "value": 20.7, "unit": "%"}, {"measurement": "inhibition of kinase labeling", "setting": "[5]", "value": 20.7, "unit": "%"}, {"measurement": "inhibition at 1 µM", "setting": "[6]", "value": 8.6, "unit": "%"}, {"measurement": "inhibition at 1 µM", "setting": "[7]", "value": 10.8, "unit": "%"}, {"measurement": "inhibition at 1 µM", "setting": "[8]", "value": 23.3, "unit": "%"}, {"measurement": "inhibition at 1 µM", "setting": "[9]", "value": 3.5, "unit": "%"}, {"measurement": "inhibition at 1 µM", "setting": "[10]", "value": 17.3, "unit": "%"}, {"measurement": "inhibition at 1 µM", "setting": "[11]", "value": 15.9, "unit": "%"}, {"measurement": "inhibition at 1 µM", "setting": "[12]", "value": 17.2, "unit": "%"}, {"measurement": "inhibition at 1 µM", "setting": "[13]", "value": -1.4, "unit": "%"}, {"measurement": "inhibition at 1 µM", "setting": "[14]", "value": 16.6, "unit": "%"}, {"measurement": "inhibition at 1 µM", "setting": "[15]", "value": -21.8, "unit": "%"}, {"measurement": "inhibition at 1 µM", "setting": "[16]", "value": 23.9, "unit": "%"}, {"measurement": "inhibition of kinase labeling", "setting": "[17]", "value": 4.1, "unit": "%"}, {"measurement": "inhibition at 1 µM", "setting": "[18]", "value": -14.6, "unit": "%"}, {"measurement": "inhibition at 1 µM", "setting": "[19]", "value": 28.7, "unit": "%"}, {"measurement": "inhibition at 1 µM", "setting": "[20]", "value": 9.4, "unit": "%"}, {"measurement": "inhibition at 1 µM", "setting": "[21]", "value": -3, "unit": "%"}, {"measurement": "inhibition at 1 µM", "setting": "[22]", "value": -6.1, "unit": "%"}, {"measurement": "inhibition at 1 µM", "setting": "[23]", "value": -0.4, "unit": "%"}, {"measurement": "inhibition at 1 µM", "setting": "[24]", "value": 10, "unit": "%"}, {"measurement": "inhibition of kinase labeling", "setting": "[25]", "value": "−3.7", "unit": "%"}, {"measurement": "inhibition at 1 µM", "setting": "[26]", "value": 85.1, "unit": "%"}, {"measurement": "inhibition of kinase labeling", "setting": "[27]", "value": 17.8, "unit": "%"}, {"measurement": "inhibition at 1 µM", "setting": "[28]", "value": -15.1, "unit": "%"}, {"measurement": "inhibition at 1 µM", "setting": "[29]", "value": -23.1, "unit": "%"}, {"measurement": "inhibition at 1 µM", "setting": "[30]", "value": 2.8, "unit": "%"}, {"measurement": "inhibition at 1 µM", "setting": "[31]", "value": 12.3, "unit": "%"}, {"measurement": "inhibition of kinase labeling", "setting": "[32]", "value": 1.9, "unit": "%"}, {"measurement": "inhibition at 1 µM", "setting": "[33]", "value": -17.5, "unit": "%"}, {"measurement": "inhibition at 1 µM", "setting": "[34]", "value": -17.8, "unit": "%"}, {"measurement": "inhibition at 1 µM", "setting": "[35]", "value": -35.2, "unit": "%"}, {"measurement": "inhibition at 1 µM", "setting": "[36]", "value": -5.4, "unit": "%"}, {"measurement": "inhibition of kinase labeling", "setting": "[37]", "value": 12.7, "unit": "%"}, {"measurement": "inhibition at 1 µM", "setting": "[38]", "value": -22.9, "unit": "%"}, {"measurement": "inhibition at 1 µM", "setting": "[39]", "value": -28.9, "unit": "%"}, {"measurement": "inhibition of kinase labeling", "setting": "[40]", "value": 27, "unit": "%"}]}
